Experimental findings from PubChem BioAssay (NCI) are described below.

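These data come from cells grown in 96-well plates and exposed to compound for 48 hours at five concentrations. The concentration for 50% growth inhibition is given as GI50. TGI: concentration producing complete growth inhibition.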

Among the test systems are HOP-92 NSCLC; M14 melanoma; CCRF-CEM leukemia; COLO 205 colon; NCI-H23 lung; HT29 colon; SNB-19 CNS; HS 578T breast; MCF7 breast; NCI-H522 lung.
What all share (test): DTP human tumour cell line panel, 48 h

In the case of `COc1cc(N2CCC(N3CCN(C)CC3)CC2)ccc1Nc1ncnc(Nc2ccccc2S(=O)(=O)C(C)C)n1`, the GI50 is 0.467 µM with HOP-92 NSCLC; 4.07 µM in the assay with M14 melanoma; 5.84 µM with CCRF-CEM leukemia; 3.21 µM in the assay on COLO 205 colon; 8.1 µM in the assay with NCI-H23 lung; 1.93 µM in the assay on HT29 colon. Further, the GI50 in the assay on SNB-19 CNS is 4.98 µM; with HS 578T breast, 4.2 µM; in the assay with MCF7 breast it was 2.36 µM; in the assay on NCI-H522 lung, 4.65 µM. Further, the TGI in the assay on HOP-92 NSCLC is 2.03 µM; in the assay on M14 melanoma, 16.6 µM; in the assay on CCRF-CEM leukemia, greater than 42.7 µM; with COLO 205 colon, 11.1 µM; in the assay on NCI-H23 lung it was 36.6 µM; with HT29 colon, 7.25 µM. The TGI is greater than 69.3 µM in the assay with SNB-19 CNS, 54.5 µM in the assay on HS 578T breast, 23.5 µM with MCF7 breast and 14 µM with NCI-H522 lung.

As for `c1ccc2c(NCCCCCCNc3c4ccccc4nc4ccccc34)c3ccccc3nc2c1`, the TGI with HOP-92 NSCLC came to 1.97 µM; with M14 melanoma it was 2.58 µM; in the assay with CCRF-CEM leukemia, 1.58 µM; with COLO 205 colon, 1.58 µM; with NCI-H23 lung, 2.33 µM; in the assay with HT29 colon, 1.77 µM. In addition, the TGI came out at 4.92 µM in the assay on SNB-19 CNS, 3.05 µM in the assay with HS 578T breast, 2.07 µM in the assay with MCF7 breast and 1.66 µM with NCI-H522 lung.

Regarding `N#Cc1ccc2c(c1)C(=O)c1c-2n(CCCCl)c(=O)c2cc([N+](=O)[O-])ccc12`, the GI50 in the assay with HOP-92 NSCLC is 5.06 µM; in the assay with M14 melanoma, 4.64 µM; with CCRF-CEM leukemia, 0.589 µM; in the assay with COLO 205 colon, greater than 100 µM; in the assay with NCI-H23 lung, 4.81 µM; in the assay with HT29 colon, 7.93 µM. For the same compound, the GI50 with SNB-19 CNS is 3.39 µM; in the assay on HS 578T breast, 41 µM; in the assay with MCF7 breast, 0.38 µM; in the assay on NCI-H522 lung, 3.07 µM. The TGI was 23.1 µM with HOP-92 NSCLC; greater than 100 µM in the assay on M14 melanoma; 10.7 µM in the assay on CCRF-CEM leukemia; greater than 100 µM in the assay with COLO 205 colon; 17.6 µM in the assay on NCI-H23 lung; greater than 100 µM in the assay with HT29 colon. Besides, the TGI with SNB-19 CNS was greater than 100 µM; in the assay with HS 578T breast, greater than 100 µM; in the assay on MCF7 breast, greater than 100 µM; with NCI-H522 lung, 24.3 µM.

For `CC(=O)N1C/C(=C/c2ccc(Cl)cc2)C(=O)/C(=C/c2ccc(Cl)cc2)C1`, the GI50 in the assay with HOP-92 NSCLC was 1.52 µM; in the assay with M14 melanoma, 0.735 µM; with CCRF-CEM leukemia it was 0.319 µM; in the assay with COLO 205 colon it was 0.756 µM; in the assay with NCI-H23 lung it was 1.5 µM; with HT29 colon it was 0.254 µM. The GI50 is 1.14 µM in the assay on SNB-19 CNS, 1.43 µM in the assay with HS 578T breast, 0.292 µM in the assay on MCF7 breast and 1.35 µM in the assay on NCI-H522 lung. Further, the total growth inhibition concentration (TGI) in the assay on HOP-92 NSCLC was found to be 4.06 µM; in the assay with M14 melanoma, 2.11 µM; in the assay with CCRF-CEM leukemia, 3.03 µM; in the assay with COLO 205 colon, 2.01 µM; in the assay with NCI-H23 lung, 3.67 µM; in the assay with HT29 colon it was 0.619 µM. For the same compound, the concentration for total growth inhibition (TGI) is 2.49 µM in the assay with SNB-19 CNS, 5.24 µM in the assay with HS 578T breast, 1.13 µM with MCF7 breast and 2.83 µM in the assay with NCI-H522 lung.

As for `C=C1C(=O)O[C@H]2[C@H]1CC/C(COC(=O)C(=O)c1cn(C)c3ccc(Cl)cc13)=C\CC[C@@]1(C)O[C@@H]21`, the GI50 is 1.72 µM in the assay with HOP-92 NSCLC; 1.11 µM in the assay with M14 melanoma; 0.338 µM in the assay with CCRF-CEM leukemia; 1.96 µM in the assay with COLO 205 colon; 1.39 µM in the assay on NCI-H23 lung; 0.339 µM in the assay on HT29 colon. The GI50 in the assay on SNB-19 CNS is 2.16 µM; in the assay on HS 578T breast, 3.14 µM; with MCF7 breast it was 0.391 µM; with NCI-H522 lung, 1.24 µM. Moreover, the TGI in the assay with HOP-92 NSCLC is 3.62 µM; in the assay with M14 melanoma it was 2.74 µM; with CCRF-CEM leukemia it was 10.9 µM; in the assay on COLO 205 colon it was 4.2 µM; with NCI-H23 lung, 3.05 µM; in the assay on HT29 colon, 1.19 µM. Moreover, the TGI stood at 6.13 µM in the assay on SNB-19 CNS, 17.6 µM in the assay with HS 578T breast, 3.19 µM with MCF7 breast and 2.68 µM in the assay with NCI-H522 lung.

`O=C1O/C(=C\c2ccccc2)N(c2ccccc2)C1=O`: the TGI in the assay with HOP-92 NSCLC, with M14 melanoma, with CCRF-CEM leukemia, in the assay with COLO 205 colon, with NCI-H23 lung and with HT29 colon was greater than 100 µM throughout. Further, the TGI with SNB-19 CNS, with HS 578T breast, in the assay on MCF7 breast and in the assay on NCI-H522 lung was greater than 100 µM each time.

Regarding `CS(=O)(=O)CCNCc1ccc(-c2ccc3ncnc(Nc4ccc(OCc5ccccc5)c(Br)c4)c3c2)o1`, the GI50 is 3.49 µM in the assay with HOP-92 NSCLC; 4.98 µM in the assay on M14 melanoma; 9.89 µM with CCRF-CEM leukemia; 4.69 µM with COLO 205 colon; 10.5 µM in the assay with NCI-H23 lung; 4.72 µM with HT29 colon. Besides, the GI50 in the assay with SNB-19 CNS was greater than 20.8 µM; with HS 578T breast, 5.08 µM; in the assay with MCF7 breast, 7.07 µM; in the assay on NCI-H522 lung, 3.86 µM. Moreover, the TGI in the assay on HOP-92 NSCLC is 12.5 µM; with M14 melanoma, 10.3 µM; in the assay on CCRF-CEM leukemia it was greater than 25 µM; with COLO 205 colon, 9.75 µM; in the assay with NCI-H23 lung, greater than 25 µM; in the assay with HT29 colon it was 10.1 µM. The TGI with SNB-19 CNS was greater than 25 µM; with HS 578T breast, 15.9 µM; in the assay with MCF7 breast, 24.6 µM; in the assay with NCI-H522 lung, 10.6 µM.

For `Cc1ccc2c(-c3ccnc(Nc4ccccc4)n3)c(-c3ccc(F)cc3)nn2n1`, the GI50 with HOP-92 NSCLC is 3.33 µM; with M14 melanoma, 9.56 µM; in the assay with CCRF-CEM leukemia it was 5.81 µM; in the assay on COLO 205 colon, 11.1 µM; in the assay on NCI-H23 lung it was 8.25 µM; in the assay on HT29 colon, 2.34 µM. Further, the GI50 in the assay on SNB-19 CNS is 14.4 µM; with HS 578T breast, 8.51 µM; with MCF7 breast it was 7.44 µM; with NCI-H522 lung, 4.34 µM. The TGI with HOP-92 NSCLC is greater than 25 µM; with M14 melanoma it was greater than 25 µM; in the assay with CCRF-CEM leukemia it was greater than 25 µM; with COLO 205 colon it was greater than 25 µM; with NCI-H23 lung, greater than 25 µM; in the assay with HT29 colon, greater than 19.2 µM. In addition, the concentration for total growth inhibition (TGI) in the assay on SNB-19 CNS was greater than 25 µM; in the assay with HS 578T breast it was greater than 25 µM; in the assay with MCF7 breast, greater than 25 µM; in the assay with NCI-H522 lung it was 13.9 µM.
